Data taken from the NIST ThermoML archive (doi:10.1021/je2013704).

Experiment: mn = molality of the nth substance listed, in mol/kg
Conditions: Liquid, Vibrating tube method

[Cl-].[K+] [potassium chloride] + O
mass density [kg/m3]
Conditions	298.12 K	323.07 K	348.04 K	372.99 K	397.97 K	422.94 K	447.94 K	472.96 K
900 kPa, m1 = 1.06	1044.2	1034.14	1020.74	1004.76	986.31	965.57	942.89	–
900 kPa, m1 = 3.15	1124.07	1112.58	1098.82	1083.32	1065.9	1046.73	1025.62	–
900 kPa, m1 = 4.49	1168.21	1156.09	1142.21	1126.88	1109.9	1091.46	1071.39	–
9900 kPa, m1 = 1.06	1047.96	1037.83	1024.46	1008.64	990.53	970.25	948.08	923.68
9900 kPa, m1 = 3.15	1127.47	1115.91	1102.28	1086.89	1069.71	1050.87	1030.11	1007.94
9900 kPa, m1 = 4.49	1171.42	1159.3	1145.43	1130.26	1113.48	1095.41	1075.5	1054.54
19900 kPa, m1 = 1.06	1052.02	1041.82	1028.51	1012.91	995.11	975.13	953.62	929.93
19900 kPa, m1 = 3.15	1131.16	1119.53	1105.97	1090.74	1073.82	1055.23	1034.96	1013.25
19900 kPa, m1 = 4.49	1174.92	1162.77	1148.98	1133.92	1117.4	1099.54	1080.06	1059.47
29900 kPa, m1 = 1.06	1056.08	1045.67	1032.5	1017.11	999.53	979.97	958.88	935.86
29900 kPa, m1 = 3.15	1134.81	1123.11	1109.59	1094.53	1077.73	1059.51	1039.57	1018.38
29900 kPa, m1 = 4.49	1178.38	1166.16	1152.52	1137.58	1121.12	1103.53	1084.38	1064.17
39900 kPa, m1 = 1.06	1060	1049.58	1036.42	1021.1	1003.82	984.63	963.97	941.62
39900 kPa, m1 = 3.15	1138.35	1126.71	1113.24	1098.25	1081.65	1063.66	1044.09	1023.39
39900 kPa, m1 = 4.49	1181.79	1169.63	1155.93	1141.11	1124.86	1107.49	1088.62	1068.85
49900 kPa, m1 = 1.06	1063.86	1053.35	1040.18	1025.08	1008.02	989.18	968.88	947.07
49900 kPa, m1 = 3.15	1141.9	1130.16	1116.68	1101.91	1085.49	1067.79	1048.45	1028.19
49900 kPa, m1 = 4.49	1185.09	1172.93	1159.38	1144.58	1128.56	1111.34	1092.74	1073.32
59900 kPa, m1 = 1.06	1067.62	1057.01	1043.91	1028.91	1012.1	993.52	973.66	952.36
59900 kPa, m1 = 3.15	1145.28	1133.6	1120.15	1105.38	1089.26	1071.77	1052.77	1032.84
59900 kPa, m1 = 4.49	1188.28	1176.14	1162.56	1147.95	1132.08	1115.08	1096.73	1077.68
68400 kPa, m1 = 1.06	1070.84	1060.07	1047.14	1032.17	1015.46	997.11	977.57	956.79
68400 kPa, m1 = 3.15	1148.2	1136.35	1123.07	1108.37	1092.3	1075	1056.27	1036.57
68400 kPa, m1 = 4.49	1191.12	1178.8	1165.39	1150.77	1135	1118.18	1100.1	1081.18
